Assay results from patent US4485110A, “β-Lactam compounds, and use” (priority 1980, dated 1984).
Like-named read-outs stand apart in the source and are kept apart here.

Legend:
Assay in all cases: β-Lactamase inhibitory activity: antibiotic MIC alone or in combination
Type in all cases: cell-based
[1] = test system: S. aureus Russell; conditions: Staphylococcus aureus, ticarcillin alone; read-out: Ticarcillin MIC
Excerpt: (§1) These tables show the MIC values of amoxycillin, cephaloridine, ticarcillin and apalcillin against a number of β-lactamase producing organisms.

[2] = test system: E. coli 0111
Excerpt: as §1

[3] = test system: P. mirabilis 889; conditions: Proteus mirabilis, 889, ticarcillin alone; read-out: Ticarcillin MIC
Excerpt: as §1

[4] = test system: S. aureus MB9; conditions: Staphylococcus aureus
Excerpt: as §1

[5] = test system: K. aerogenes I112; conditions: for MIC: Klebsiella aerogenes
Excerpt: as §1

[6] = test system: K. aerogenes A; conditions: Klebsiella aerogenes
Excerpt: as §1

[7] = test system: E. coli JT39R+; conditions: for MIC: Escherichia coli
Excerpt: as §1

[8] = test system: P. mirabilis 977
Excerpt: as §1

[9] = test system: C. freundii B10R+; conditions: Citrobacter freundii
Excerpt: as §1

[10] = test system: E. coli JT20R+; conditions: Escherichia coli
Excerpt: as §1

[11] = test system: C. freundii E8; conditions: for MIC: Citrobacter freundii
Excerpt: as §1

[12] = test system: K. aerogenes Ba95R+; conditions: Klebsiella aerogenes
Excerpt: as §1

[13] = test system: P. aeruginosa Dalgleish; conditions: Pseudomonas aeruginosa
Excerpt: as §1

[14] = test system: S. marcescens US20; conditions: for MIC: Serratia marcescens
Excerpt: as §1

[15] = test system: P. aeruginosa A; conditions: Pseudomonas aeruginosa
Excerpt: as §1

[16] = test system: E. cloacae N1; conditions: for MIC: Enterobacter cloacae
[17] = test system: P. morganii 1580
Excerpt: as §1

[18] = test system: P. vulgaris WO91
Excerpt: as §1

[19] = test system: P. rettgeri WM16
Excerpt: as §1

[20] = test system: E. coli JT410 C+; conditions: cephaloridine alone
Excerpt: as §1

[21] = ticarcillin alone, read-out: Ticarcillin MIC
[22] = cephaloridine alone, read-out: Cephaloridine MIC

Structure (SMILES): CC1(C)S[C@@H]2[C@H](NC(=O)[C@H](C(=O)O)c3ccsc3)C(=O)N2[C@H]1C(=O)O [Ticarcillin]
- MIC [1]: 25 µg/mL
- MIC ([2]; Escherichia coli, 0111, ticarcillin alone, read-out: Ticarcillin MIC): 5 µg/mL
- MIC [3]: > 1000 µg/mL
- MIC ([4]; MB9, ticarcillin alone, read-out: Ticarcillin MIC): 10 µg/mL
- MIC ([5]; I112, read-out: Ticarcillin MIC, ticarcillin alone): 500 µg/mL
- Ticarcillin MIC ([5]; ticarcillin alone): 250 µg/mL
- MIC [6, 21]: 100 µg/mL
- MIC ([7]; read-out: Ticarcillin MIC, ticarcillin alone): > 1000 µg/mL
- MIC ([8]; Proteus mirabilis, 977, ticarcillin alone, read-out: Ticarcillin MIC): 1 µg/mL
- MIC ([9]; read-out: Ticarcillin MIC): > 1000 µg/mL
- MIC ([10]; read-out: Ticarcillin MIC): > 1000 µg/mL
- MIC ([11]; E8, ticarcillin alone, read-out: Ticarcillin MIC): 2.5 µg/mL
- Ticarcillin MIC ([11]; ticarcillin alone): 5.0 µg/mL
- MIC ([12]; read-out: Ticarcillin MIC): > 1000 µg/mL
- MIC [13, 21]: > 1000 µg/mL
- MIC ([14]; US20, ticarcillin alone, read-out: Ticarcillin MIC): 5 µg/mL
- MIC [15, 21]: 25 µg/mL
- MIC ([16]; N1, ticarcillin alone, read-out: Ticarcillin MIC): 2.5 µg/mL

Structure (SMILES): O=C(Cc1cccs1)N[C@@H]1C(=O)N2C(C(=O)[O-])=C(C[n+]3ccccc3)CS[C@H]12 [Cephaloridine]
- MIC ([17]; Morganella morganii, 1580, cephaloridine alone, read-out: Cephaloridine MIC): 1000 µg/mL
- Cephaloridine MIC ([17]; cephaloridine alone): > 1000 µg/mL
- MIC ([2]; Escherichia coli, 0111, cephaloridine alone, read-out: Cephaloridine MIC): 2.5 µg/mL
- Cephaloridine MIC ([2]; cephaloridine alone): 5.0 µg/mL
- MIC ([4]; MB9, cephaloridine alone, read-out: Cephaloridine MIC): < 0.2 µg/mL
- MIC ([5]; I112, read-out: Cephaloridine MIC, cephaloridine alone): 5 µg/mL
- MIC [6, 22]: 2.5 µg/mL
- MIC ([18]; Proteus vulgaris, WO91, cephaloridine alone, read-out: Cephaloridine MIC): 1000 µg/mL
- Cephaloridine MIC ([18]; cephaloridine alone): > 1000 µg/mL
- MIC ([19]; Providencia rettgeri, WM16, cephaloridine alone, read-out: Cephaloridine MIC): 1000 µg/mL
- Cephaloridine MIC ([19]; cephaloridine alone): > 1000 µg/mL
- MIC ([7]; read-out: Cephaloridine MIC, cephaloridine alone): 5 µg/mL
- Cephaloridine MIC ([7]; cephaloridine alone): 10 µg/mL
- MIC ([8]; Proteus mirabilis, 977, cephaloridine alone, read-out: Cephaloridine MIC): 10 µg/mL
- Cephaloridine MIC ([8]; cephaloridine alone): 5.0 µg/mL
- MIC ([9]; read-out: Cephaloridine MIC): > 1000 µg/mL
- MIC ([10]; read-out: Cephaloridine MIC): 25 µg/mL
- MIC ([20]; Escherichia coli, read-out: Cephaloridine MIC): 50 µg/mL
- Cephaloridine MIC [20]: 100 µg/mL
- MIC ([11]; E8, cephaloridine alone, read-out: Cephaloridine MIC): 500 µg/mL
- MIC ([12]; read-out: Cephaloridine MIC): 100 µg/mL
- MIC [13, 22]: > 1000 µg/mL
- MIC ([14]; US20, cephaloridine alone, read-out: Cephaloridine MIC): 1000 µg/mL
- Cephaloridine MIC ([14]; cephaloridine alone): > 1000 µg/mL
- MIC [15, 22]: > 1000 µg/mL
- MIC ([16]; N1, cephaloridine alone, read-out: Cephaloridine MIC): 500 µg/mL
- Cephaloridine MIC ([16]; cephaloridine alone): 1000 µg/mL
